Data as given in PubChem BioAssay (NCI).
Where “and” joins values, the source holds several entries; their conditions need not be identical. Identical values can stand only once.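 Values below derive from 48-hour exposures of cells grown in 96-well plates, with endpoints linearly interpolated between the two concentrations bracketing the appropriate inhibition level. GI50 marks 50% less growth. TGI marks complete inhibition of growth.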 Where a SMILES comes first, the peptide text is derived from it. The star is where a group is joined. Boc = CC(C)(C)OC(=O)*; OBn = c1ccc(CO*)cc1; Bn = c1ccc(C*)cc1

What was measured:
Assay in all cases: growth of human tumour cells (NCI), 48 h
A498 renal = system: A498 renal
NCI/ADR-RES ovarian = system: NCI/ADR-RES ovarian
K-562 leukemia = system: K-562 leukemia
SR leukemia = system: SR leukemia
HOP-62 NSCLC = system: HOP-62 NSCLC
U251 CNS = system: U251 CNS
HCC-2998 colon = system: HCC-2998 colon
SK-MEL-5 melanoma = system: SK-MEL-5 melanoma
HS 578T breast = system: HS 578T breast

Compound | TGI (A498 renal) | TGI (NCI/ADR-RES ovarian) | TGI (K-562 leukemia) | TGI (SR leukemia) | TGI (HOP-62 NSCLC) | TGI (U251 CNS) | TGI (HCC-2998 colon) | TGI (SK-MEL-5 melanoma) | TGI (HS 578T breast) | GI50 (A498 renal) | GI50 (NCI/ADR-RES ovarian) | GI50 (K-562 leukemia) | GI50 (HOP-62 NSCLC) | GI50 (HCC-2998 colon) | GI50 (SK-MEL-5 melanoma) | GI50 (HS 578T breast) | GI50 (SR leukemia) | GI50 (U251 CNS)
C(=C/c1ccc2nc(-c3ccc(/C=C/C=N/NC4=NCCCN4)cc3)cn2c1)/C=N/NC1=NCCCN1 | > 100 µM | 51.7 µM | 79.9 µM | > 100 µM | > 100 µM | > 100 µM | > 100 µM | > 100 µM | 42.2 µM |  |  |  |  |  |  |  |  | 
C=C1CN(C(=O)c2cc3cc(OC)c(OC)c(OC)c3[nH]2)c2cc([N+](=O)[O-])ccc21 | > 100 µM | > 100 µM | > 100 µM | > 100 µM |  | > 100 µM | > 100 µM | > 100 µM | 41.9 µM |  |  |  |  |  |  |  |  | 
CN(CCN(C)Cc1ccc(Cl)c(Cl)c1)CCN1CCCC1 | 35.3 µM | > 100 µM | 32.2 µM |  | > 100 µM | > 100 µM | 32.2 µM | 29.1 µM | > 45 µM |  |  |  |  |  |  |  |  | 
O=C1OS2(OC(=O)c3cccc4cccc2c34)c2ccccc21 (stereo not given) | > 100 µM | > 100 µM | > 100 µM |  | > 100 µM | > 100 µM |  | > 100 µM | > 100 µM |  |  |  |  |  |  |  |  | 
C=CCn1c(-c2ccc(N=NNc3ccc(-c4n[nH]c(=S)n4CC=C)cc3)cc2)n[nH]c1=S | > 100 µM | 61.4 µM | 7.71 µM | > 100 µM | 14.8 µM | 17.5 µM |  | 3.79 µM | > 100 µM |  |  |  |  |  |  |  |  | 
O=c1[nH]c(=O)n(COCCO)cc1-c1ccccc1 |  | > 100 µM | > 100 µM | > 100 µM | > 100 µM | > 100 µM | > 100 µM | > 100 µM | > 100 µM |  |  |  |  |  |  |  |  | 
C=CCCCN1C(=O)C2C3c4ccccc4C(C=O)(c4ccccc43)C2C1=O (stereo not given) |  | 58.2 µM | 17.8 µM | 18.1 µM | 28.2 µM | 24.9 µM | 28.5 µM | 23.5 µM |  |  |  |  |  |  |  |  |  | 
CS(=O)(=O)c1nc(-c2cc3c(c(S(C)(=O)=O)n2)CCC3)cc2c1CCC2 | > 100 µM | > 100 µM | > 100 µM |  | > 100 µM | > 100 µM | > 100 µM | > 100 µM |  |  |  |  |  |  |  |  |  | 
C/C(=N\NC(=S)N/N=C(\C)c1ccccn1)c1ccccn1 | 82.6 µM | 27 µM | 7.92 µM | > 100 µM | 5.28 µM | > 100 µM |  | > 100 µM | > 100 µM |  |  |  |  |  |  |  |  | 
Nc1nc(-c2ccccc2)cc(-c2ccc(F)cc2)c1-c1ccc(Cl)cc1 |  | > 100 µM | > 100 µM | > 100 µM | > 100 µM | > 100 µM | > 100 µM | > 100 µM | > 100 µM |  |  |  |  |  |  |  |  | 
N#CCCN(CCN(CCN(C(=O)Nc1ccccc1)c1ccccc1)C(=O)Nc1ccccc1)C(=O)Nc1ccccc1 | > 100 µM | > 100 µM |  |  | > 100 µM | > 100 µM | > 100 µM | > 100 µM | > 100 µM |  |  |  |  |  |  |  |  | 
O=C(O)c1cc(/C=C/c2ccc(O)c(O)c2)ccc1O |  | > 100 µM | 44.9 µM | > 100 µM | > 100 µM | > 100 µM | > 100 µM | > 100 µM | > 100 µM |  |  |  |  |  |  |  |  | 
O=C1NC(N2CCOCC2)=N/C1=C\c1ccccc1 |  | > 100 µM |  | > 100 µM | > 100 µM | > 100 µM | > 100 µM | > 100 µM | > 100 µM |  |  |  |  |  |  |  |  | 
COc1cc(/C=C/C(=O)OC[C@]23O[C@H]2[C@@H](OC2OC(C)C(O)C(O)C2O)C2C=CO[C@@H](OC4OC(CO)C(O)C(O)C4O)C23)ccc1O (stereo not given in full) |  | > 100 µM | > 100 µM | > 100 µM | > 100 µM | > 100 µM | > 100 µM | > 100 µM | > 100 µM |  |  |  |  |  |  |  |  | 
O=C(/C=C/c1ccco1)c1ccc(Nc2ccnc3cc(Cl)ccc23)cc1 | > 100 µM | > 100 µM | > 100 µM |  | > 100 µM |  | > 100 µM | > 100 µM | > 100 µM | 1.29 µM | 75.8 µM | 2.97 µM | > 100 µM | > 100 µM | 12 µM | > 100 µM |  | 
NC(=O)c1ccc(N)nc1 | > 400 µM | > 400 µM | > 400 µM | > 400 µM | > 247 µM | > 400 µM | > 400 µM |  | > 400 µM |  |  |  |  |  |  |  |  | 
CCCCc1ccc(Nc2nc(N)c3[nH]cnc3n2)cc1 | 24.2 µM | 37.2 µM | > 100 µM |  |  | 48 µM | 46.4 µM | 30.9 µM | 41.6 µM |  |  |  |  |  |  |  |  | 
Nc1c(Cl)ncnc1NCC1(CO)CCC1 | > 100 µM | > 100 µM | > 100 µM | > 100 µM | > 100 µM | > 100 µM |  | > 100 µM | > 100 µM |  |  |  |  |  |  |  |  | 
COC(=O)c1ccc2c(c1)CCN2C(=O)c1cc2c(cc1Br)OCO2 | 30.8 µM and > 100 µM | 4.79 µM and 0.693 µM | 50 µM and > 100 µM | 50 µM and > 100 µM | 50 µM and > 100 µM | 5.12 µM and 20.6 µM |  | 5.5 µM and 14.1 µM |  | 2.62 µM | 0.262 µM | 0.824 µM |  | 21.2 µM | 0.581 µM |  | 0.366 µM | 0.512 µM
CC(=O)Nc1ccc(S(=O)(=O)/N=c2/sc(S(N)(=O)=O)nn2C)cc1 | > 100 µM | > 100 µM |  | > 100 µM | > 100 µM | > 100 µM | > 100 µM |  |  |  |  |  |  |  |  |  |  | 
CC(C)OCC(O)COc1cc(=O)oc2ccccc12 (stereo not given) |  | > 100 µM | > 100 µM | > 100 µM | > 100 µM | > 100 µM | > 100 µM | > 100 µM | > 100 µM |  |  |  |  |  |  |  |  | 
COC(=O)c1ccc2c(c1)CC1(C2)Cc2ccc3c(c2C1)CCC3 (stereo not given) |  |  | > 100 µM | > 100 µM | 93 µM | > 100 µM | > 100 µM | 33.3 µM | > 100 µM |  |  |  |  |  |  |  |  | 
CC(C)CC(NC(=O)C(CCC(=O)OCc1ccccc1)NC(=O)OC(C)(C)C)C(=O)NC(COCc1ccccc1)C(=O)NC(Cc1ccccc1)C(=O)O (stereo not given) (Boc-E(OBn)LS(Bn)F-OH; configuration not given here) | > 100 µM |  | > 100 µM | > 100 µM | > 100 µM | > 100 µM | > 100 µM | > 100 µM | > 100 µM |  |  |  |  |  |  |  |  | 
COC12OC3(C4OC41)C(C(=O)O[C@H]3CO[Si](C)(C)C(C)(C)C)C2S(=O)(=O)c1ccccc1 (stereo not given in full) |  | > 100 µM | 5.03 µM | > 100 µM | > 5.97 µM | > 7.83 µM | > 100 µM |  | > 100 µM |  |  |  |  |  |  |  |  | 
